The term IC50 denotes the concentration needed to halve the response being measured. Usually EC50 stands for the midpoint of the concentration-response curve.

What all share (type): cell-based
The subject of test [1] is Human multiple myeloma cell line RPMI8226. The test can be described thus: Anticancer activity against multiple myeloma cell (Cell Counting Kit-8, 3 days). Conditions: RPMI-8226, 72 h, read-out: IC50 value against a multiple myeloma cell. How it is done:
Human multiple myeloma cell line RPMI8226 was seeded on a 96 well plate in a density of 1×10^4 cells/well, and incubated under 5% carbon dioxide atmosphere at 37° C. overnight. Separately, the compound obtained in Example 2 was dissolved in dimethylsulfoxide, and added to each well so that the final concentration of the compound became 0.5 μM, 1 μM, 2 μM, 3 μM, 12.5 μM, 25 μM or 50 μM.
In addition, melphalan, which is a multiple myeloma therapeutic agent, was added to each well so that the final concentration of the compound became 10 μM, 20 μM, 30 μM, 40 μM or 50 μM as positive controls for comparison. Further, an experimental case in which only dimethylsulfoxide was added in the final concentration of 0.5 v/v % without adding the compound was provided.
Then, after the cell was cultured under 5% carbon dioxide atmosphere at 37° C. for 3 days, an absorbance of formazan, which is an orange pigment produced by a living cell, at the wavelength of 420 nm was measured using a reagent for measuring cell proliferation/cytotoxicity (manufactured by Dojin Chemical Co., Cell Counting Kit-8). […] In addition, IC50 values were calculated from the obtained results.

The test system of test [2] is SP cell of human multiple myeloma cell line RPMI8226. The experiment in a line: Anticancer activity against SP cell (Hoechst33342 flow cytometry). Conditions: 5 μM. How it is done: A stem cell can undergo differentiation into various tissues and cells such as a hematopoietic stem cell, and has the quality to exclude fluorescent chemical substance such as Hoechst33258 extracellularly. […] A cell having such properties is called as an SP cell, i.e. Side Population Cell. […] Therefore, an effect of the present invention compound against a cancerous SP cell was examined.
Specifically, human multiple myeloma cell line RPMI8226 was incubated in the presence of the present invention compound similarly to Example 4. The cell was dispersed in 3% FBS DMEH so that the concentration became 1×10^6 cells/mL. A temperature of the dispersion was increased to 37° C., and then Hoechst33342 was added thereto so that the concentration thereof became 5 μg/ml. The mixture was incubated at 37° C. for 60 minutes under a shaded state with stirring every 20 minutes. Then, the mixture was centrifuged at 800×g for 3 minutes, and the supernatant was removed. Further, a washing procedure in which cooled 2% FES PBS was added, the mixture was centrifuged and the supernatant was removed was repeated two times. Separately, propidium iodide was dissolved in PBS to obtain a 200 μg/mL solution. […] The emitted fluorescence was passed through a bandpass filters of 450 nm and 675 nm, and deployed to obtain a two-dimensional dot plot. […]
(In general: A flow cytometer gives signals particle by particle.)

The test system of test [3] is Human acute myelogenous leukemia cell line KG1. The test can be described thus: Survival rate of blood cancer cells (WST-8, 72 hours). Conditions: read-out: EC50, Acute myelogenous leukemia cell. How it is done: (§1) Human acute myelogenous leukemia cell line KG1 and human promyelocytic leukemia cell line HL60 in addition to human multiple myeloma cell line RPMI8226 were seeded in a highly nutrient medium containing 10% FES (RPMI1640, 100 μL) in a density of 1×10^3 cells/well. The cells were incubated under 5% carbon dioxide atmosphere at 37° C. overnight. Separately, the compound of Example 2 was dissolved in DMSO and the obtained solution was diluted with the same culture medium. The mixture was added to each well so that the final concentrations of the compound became 0.39 μM, 0.78 μM, 1.56 μM, 3.13 μM, 6.25 μM, 12.5 μM or 50 μM.
(§2) In addition, melphalan, which is a multiple myeloma therapeutic agent, was added to each well at the same final concentrations as positive controls for comparison. Further, an experimental case in which only dimethylsulfoxide was added in the final concentration of 0.2 to 0.8 v/v % without adding the compound was provided.
(§3) Then, after the cells were cultured under 5% carbon dioxide atmosphere at 37° C. for 72 hours, the culture medium was removed and a culture medium obtained by mixing 100 μL of the above culture medium and 10 μL of WST-8, which is a reagent for measuring a cell number, was added to each well. After the cells were cultured under 5% carbon dioxide atmosphere at 37° C. for 2 hours, an absorbance at 450 nm was measured. The absorbance value when the cells were treated with DMSO only was set to be 100%, and a ratio of absorbance values at each concentration of the present invention compound or melphalan relative to the value were calculated as survival rate of each blood cancer cell. In addition, EC50, i.e. 50% effective concentration value, of each compound against each blood cancer cell was calculated from the obtained results.
On the technique in general: Formazan colour is commonly taken as a measure of viable cells.

The subject of test [4] is Human multiple myeloma cell line RPMI8226. The description is as above. Conditions: RPMI-8226, 72 h, read-out: EC50, Multiple myeloma cell. How it is done:
as §1, §2, §3

For test [5], the system named is human promyelocytic leukemia cell line HL60. The test is described as above. Conditions: HL-60, 72 h, read-out: EC50, Promyelocytic leukemia cell. How it is done:
as §1, §2, §3

For `N[C@@H](Cc1ccc(N(CCCl)CCCl)cc1)C(=O)O` [Melphalan, melphalan], the IC50 in test [1] came to 21 µM. Moreover, the “ratio of stained cells in SP region relative to the total cells” value in test [2] (control (0.5% DMSO only) 0.680 ± 0.0173%) amounted to 0.563 ± 0.0777%. For the same compound, in test [2] (control (0.5% DMSO only) 19.2 ± 0.295%), the “ratio of stained cells in Non-SP region relative to the total cells” value is 5.05 ± 0.414%. Further, the EC50 in test [3] is 3.69 µM; in test [4], 9.82 µM; in test [5], 0.734 µM.

(Values after patent US20140094521A1, “BENZYLAMINE DERIVATIVE” (priority 2011, published 2014).)
